In the assay the target is T1, human plasma protein factor Xa (Homo sapiens, UniProt P00742).
T1 construct: measure proteolytic activity of the enzyme (factor Xa); purchased Haematologic Technologies (Essex Junction, Vt.); host or cells: human plasma
Nature of the assay: Factor Xa IC50 determination (cleavage of chromogenic substrate S-2765). It counts as biochemical. As to conditions: fXa 1 nM, S-2765 100 μM, Tris buffered saline pH 7.4, room temperature. In short, it runs like this:
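Human plasma factor Xa (1 nM) preincubated 5 min at room temperature with inhibitor (0.01 nM–10 μM final) in Tris-buffered saline pH 7.4 with CaCl2, BSA and 5% DMSO. S-2765 added at 100 μM; pNA release at 405 nm over 2 min; initial velocities fitted to four-parameter equation for IC50, duplicates.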

The record followed here is US7678913B2, “Ureas as factor Xa inhibitors” (Portola Pharmaceuticals, Inc., priority 2004, dated 2010).

A value given as a limit tells only on which side of the number the result lay.

T1 sequence (P00742 235-488 limits assumed): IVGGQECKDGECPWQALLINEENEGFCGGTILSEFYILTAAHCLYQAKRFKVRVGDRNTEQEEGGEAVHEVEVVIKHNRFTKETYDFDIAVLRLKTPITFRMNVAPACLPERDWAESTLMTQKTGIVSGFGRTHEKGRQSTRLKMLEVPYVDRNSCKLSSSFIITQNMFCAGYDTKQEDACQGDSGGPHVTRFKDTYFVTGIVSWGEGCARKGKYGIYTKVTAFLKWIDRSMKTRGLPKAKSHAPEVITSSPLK
T1 sequence (P00742 41-179 partner limits assumed): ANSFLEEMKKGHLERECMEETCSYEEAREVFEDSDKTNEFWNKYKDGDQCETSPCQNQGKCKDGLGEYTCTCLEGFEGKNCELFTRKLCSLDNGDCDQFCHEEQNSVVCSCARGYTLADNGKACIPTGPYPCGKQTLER

As usually defined, the IC50 is the concentration needed to halve the response being measured. In turn, `C#CCN(C)C(=N)c1ccc(NC(=O)C(NC(=O)Nc2ccc(Cl)cc2)c2ccccc2)cc1` (stereo not drawn) [Example 27, N-[4-(N-methyl-N-propargylaminoimino)phenyl]-2-phenyl-2-(4-chlorophenylaminocarbonylamino)-acetamide] displayed an IC50 not above 100 nM.

In turn, `O=C(Nc1ccc(Cl)cc1)N[C@@H](C(=O)N1CCC(N2CCCCC2=O)CC1)c1ccccc1` [Example 141, (2R) 4-(2-piperidinon-1-yl)piperidin-1-yl-2-phenyl-2-(4-chlorophenylaminocarbonylamino)-acetamide] displayed an IC50 not above 100 nM.

`COc1ccccc1C(NC(=O)Nc1ccc(Cl)cc1)C(=O)Nc1ccc(C(=N)N(C)C)cc1` (stereo not drawn) [Example 112, N-[4-(dimethylaminoimino)phenyl]-2-(2-methoxyphenyl)-2-(4-chlorophenylaminocarbonylamino)-acetamide]: the IC50 was not above 100 nM.

In turn, `CN1CCN=C1c1ccc(NC(=O)C(CC(N)=O)NC(=O)Nc2ccc(Cl)cc2)cc1` (stereo not drawn) [Example 71, N-[4-(1-methyl-4,5-dihydro-1H-imidazol-2-yl)phenyl]-2-(aminocarbonylmethyl)-2-(4-chlorophenylaminocarbonylamino)-acetamide] displayed an IC50 not below 500 nM.

Consider `Cc1ccccc1C(NC(=O)Nc1ccc(Cl)cc1)C(=O)Nc1ccc(C(=N)N2CCCC2)cc1` (stereo not drawn) [Example 87], for which the IC50 is not above 100 nM.

Molecule `CN1CCN=C1c1ccc(NC(=O)C(NC(=O)Nc2ccc(Cl)cc2)c2ccccc2)cc1` (stereo not drawn) [Example 16, N-[4-(1-methyl-4,5-dihydro-1H-imidazol-2-yl)phenyl]-2-phenyl-2-(4-chlorophenylaminocarbonylamino)-acetamide] yielded a concentration for half-maximal inhibition (IC50) not above 100 nM.

As for `CN1CCN=C1c1ccc(NC(=O)C(NC(=O)Nc2ccc(Br)cc2)c2cccs2)cc1` (stereo not drawn) [Example 30, N-[4-(1-methyl-4,5-dihydro-1H-imidazol-2-yl)phenyl]-2-(2-thienyl)-2-(4-bromophenylaminocarbonylamino)-acetamide], the half-inhibitory concentration (IC50) is not above 100 nM.

For `N=C(c1ccc(NC(=O)C(NC(=O)Nc2ccc(Cl)cc2)c2ccccc2Br)cc1)N1CCCC1` (stereo not drawn) [Example 81], the IC50 is not above 100 nM.

For `Cc1ccccc1C(NC(=O)Nc1ccc(Cl)cc1)C(=O)Nc1ccc(C(=N)N(C)C)cc1` (stereo not drawn) [Example 86], the IC50 was not above 100 nM.

With `N=C(c1ccc(NC(=O)C(NC(=O)Nc2ccc(Cl)cc2)c2cccs2)cc1)N1CCCC1` (stereo not drawn) [Example 21], the IC50 is not above 100 nM.

In turn, `COc1ccccc1C(NC(=O)Nc1ccc(Cl)cc1)C(=O)NC1CCN(C(C)C)CC1` (stereo not drawn) [Example 110, N-(1-isopropylpiperidin-4-yl)-2-(2-methoxyphenyl)-2-(4-chlorophenylamino-carbonylamino)-acetamide] yielded a concentration for half-maximal inhibition (IC50) not below 500 nM.

The molecule `O=C(Nc1ccc(Cl)cc1)NC(C(=O)Nc1ccc(-c2cc[n+]([O-])cc2)cc1)c1ccccc1F` (stereo not drawn) [Example 50, N-[4-(N-oxo-pyridin-4-yl)phenyl]-2-(2-fluorophenyl)-2-(4-chlorophenylaminocarbonylamino)-acetamide] had an IC50 of 100 to 500 nM.

In turn, `CN1CCN=C1c1ccc(NC(=O)C(NC(=O)Nc2ccc(Cl)cc2)c2cccs2)cc1` (stereo not drawn) [Example 12, N-[4-(1-methyl-4,5-dihydro-1H-imidazol-2-yl)phenyl]-2-(2-thienyl)-2-(4-chlorophenylaminocarbonylamino)-acetamide] had an IC50 not above 100 nM.

Turning to `CN1CCN=C1c1ccc(NC(=O)C(NC(=O)Nc2ccc(Cl)cc2)c2ccccc2I)cc1` (stereo not drawn) [Example 114, N-[4-(1-methyl-4,5-dihydro-1H-imidazol-2-yl)phenyl]-2-(2-iodophenyl)-2-(4-chlorophenylaminocarbonylamino)-acetamide], the half-inhibitory concentration (IC50) is not above 100 nM.

In turn, `N=C(c1ccc(NC(=O)C(NC(=O)Nc2ccc(Br)cc2)c2ccccc2F)cc1)N1CCCCC1` (stereo not drawn) [Example 45, N-[4-(piperidin-1-ylimino)phenyl]-2-(2-fluorophenyl)-2-(4-bromophenylaminocarbonylamino)-acetamide] displayed an IC50 not above 100 nM.

On to `CN(C)C(=N)c1ccc(NC(=O)C(NC(=O)Nc2ccc(Cl)cc2)c2cccs2)cc1` (stereo not drawn) [Example 19, N-[4-(dimethylaminoimino)phenyl]-2-(2-thienyl)-2-(4-chlorophenylamino-carbonylamino)-acetamide], for which the IC50 is not above 100 nM.

On to `O=C(Nc1ccc(Br)cc1)NC(C(=O)Nc1ccc(-c2cccc[n+]2[O-])cc1)c1ccccc1F` (stereo not drawn) [Example 52, N-[4-(N-oxo-pyridin-2-yl)phenyl]-2-(2-fluorophenyl)-2-(4-bromophenylaminocarbonylamino)-acetamide], for which the IC50 was not above 100 nM.

Molecule `Cc1ccccc1C(NC(=O)Nc1ccc(Cl)cc1)C(=O)N1CCN(C2CCN(C)CC2)CC1` (stereo not drawn) [Example 91] displayed an IC50 not above 100 nM.

Consider `N=C(c1ccc(NC(=O)C(NC(=O)Nc2ccc(Cl)cc2)c2ccccc2)c(F)c1)N1CCC1` (stereo not drawn) [Example 39], for which the IC50 was not above 100 nM.

With `C=CCN(C)C(=N)c1ccc(NC(=O)C(NC(=O)Nc2ccc(Cl)cc2)c2ccccc2)cc1` (stereo not drawn) [Example 26, N-[4-(N-methyl-N-allylaminoimino)phenyl]-2-phenyl-2-(4-chlorophenylaminocarbonylamino)-acetamide], the IC50 is not above 100 nM.

As to `CN1CCC(N2CCCN(C(=O)[C@H](NC(=O)Nc3ccc(Cl)cc3)c3ccccc3)CC2)CC1` [Example 156, (2R) 4-(1-methylpiperidin-4-yl)homopiperazin-1-yl-2-phenyl-2-(4-chlorophenylaminocarbonylamino)-acetamide], the IC50 was not below 500 nM.

Regarding `CN1CCN=C1c1ccc(NC(=O)C(NC(=O)Nc2ccc(Cl)cc2)C(C)(C)C)cc1` (stereo not drawn) [Example 3, N-[4-(1-methyl-4,5-dihydro-1H-imidazol-2-yl)phenyl]-2-(1,1-dimethylethyl)-2-(4-chlorophenylaminocarbonylamino)-acetamide], the IC50 is 100 to 500 nM.

With `O=C(Nc1ccc(Cl)cc1)NC(C(=O)Nc1ccc(-c2cccc[n+]2[O-])cc1)c1ccccc1Oc1ccccc1` (stereo not drawn) [Example 125, N-[4-(N-oxo-pyridin-2-yl)phenyl]-2-(2-phenoxyphenyl)-2-(4-chlorophenylaminocarbonylamino)-acetamide], the IC50 is not above 100 nM.

`O=C(Nc1ccc(Cl)cc1)NC(C(=O)Nc1ccc(-c2cccc[n+]2[O-])cc1)c1ccccc1I` (stereo not drawn) [Example 115, N-[4-(N-oxo-pyridin-2-yl)phenyl]-2-(2-iodophenyl)-2-(4-chlorophenylamino-carbonylamino)-acetamide] registered an IC50 not above 100 nM.

`O=C(Nc1ccc(Cl)s1)N[C@H](C(=O)Nc1ccc(-n2ccccc2=O)cc1)c1ccccc1` [Example 139, (2S) N-[4-(2-pyridon-1-yl)phenyl]-2-phenyl-2-(2-chlorothiophen-5-ylaminocarbonylamino)-acetamide]: the IC50 was not above 100 nM.

Turning to `O=C(Nc1ccc(Cl)cc1)N[C@H](C(=O)Nc1ccc(-n2ccccc2=O)cc1)c1ccccc1` [Example 137, (2S) N-[4-(2-pyridon-1-yl)phenyl]-2-phenyl-2-(4-chlorophenylaminocarbonylamino)-acetamide], the IC50 is not above 100 nM.

On to `CN1CCN=C1c1ccc(NC(=O)C(NC(=O)Nc2ccc(Cl)cc2)c2ccccc2OC(F)(F)F)cc1` (stereo not drawn) [Example 120, N-[4-(1-methyl-4,5-dihydro-1H-imidazol-2-yl)phenyl]-2-(2-trifluoromethoxyphenyl)-2-(4-chlorophenylaminocarbonylamino)-acetamide], for which the IC50 was not above 100 nM.
